Test results published in ChEMBL document CHEMBL1201862, “PubChem BioAssay data set” (2004).
Active and inactive are the calls of the source.

Experiments:
[1] = molecular target: T1, Sentrin-specific protease 8 (Homo sapiens, UniProt Q96LD8); experiment: inhibition of human SENP8 cleavage activity – biochemical, luminescence, SAR follow-up (AID 504501); format: functional
T1 sequence (Q96LD8 whole entry): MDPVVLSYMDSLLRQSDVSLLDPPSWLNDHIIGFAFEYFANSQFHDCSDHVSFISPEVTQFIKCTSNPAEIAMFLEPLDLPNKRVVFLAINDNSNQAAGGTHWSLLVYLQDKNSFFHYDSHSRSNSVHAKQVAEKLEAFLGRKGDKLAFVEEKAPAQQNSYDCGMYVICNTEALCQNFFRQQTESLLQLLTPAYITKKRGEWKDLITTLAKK

[2] = molecular target: T2, Sentrin-specific protease 7 (Homo sapiens, UniProt Q9BQF6); experiment: inhibition of human SENP7 cleavage activity – biochemical, luminescence, SAR follow-up (AID 504497); format: functional
T2 sequence (Q9BQF6 whole entry): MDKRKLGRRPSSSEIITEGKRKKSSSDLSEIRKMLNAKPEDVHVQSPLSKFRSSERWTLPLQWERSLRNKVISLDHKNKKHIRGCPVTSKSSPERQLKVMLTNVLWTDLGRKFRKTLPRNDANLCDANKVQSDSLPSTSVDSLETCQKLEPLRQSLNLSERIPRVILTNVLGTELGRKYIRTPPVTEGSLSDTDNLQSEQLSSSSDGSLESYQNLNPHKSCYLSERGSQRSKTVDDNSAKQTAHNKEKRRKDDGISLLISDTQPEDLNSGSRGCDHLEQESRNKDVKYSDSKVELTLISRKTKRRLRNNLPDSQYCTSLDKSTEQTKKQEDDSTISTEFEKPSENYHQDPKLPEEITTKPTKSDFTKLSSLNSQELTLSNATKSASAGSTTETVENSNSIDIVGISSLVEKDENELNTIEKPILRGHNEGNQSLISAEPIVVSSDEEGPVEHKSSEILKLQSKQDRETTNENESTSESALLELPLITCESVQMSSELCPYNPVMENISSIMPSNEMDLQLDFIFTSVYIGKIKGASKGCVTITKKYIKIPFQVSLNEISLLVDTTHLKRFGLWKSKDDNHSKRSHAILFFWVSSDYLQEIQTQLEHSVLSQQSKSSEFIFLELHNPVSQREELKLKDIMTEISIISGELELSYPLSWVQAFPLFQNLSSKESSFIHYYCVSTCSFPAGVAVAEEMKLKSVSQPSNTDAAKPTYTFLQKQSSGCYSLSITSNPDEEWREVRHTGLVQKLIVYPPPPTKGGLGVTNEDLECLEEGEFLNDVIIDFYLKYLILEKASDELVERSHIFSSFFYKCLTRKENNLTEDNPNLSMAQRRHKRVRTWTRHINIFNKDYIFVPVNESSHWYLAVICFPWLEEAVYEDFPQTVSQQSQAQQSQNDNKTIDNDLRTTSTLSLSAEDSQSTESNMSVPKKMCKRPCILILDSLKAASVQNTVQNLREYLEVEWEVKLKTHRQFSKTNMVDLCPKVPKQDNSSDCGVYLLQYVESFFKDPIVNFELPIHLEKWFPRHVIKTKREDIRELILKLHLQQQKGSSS

[3] = molecular target: T3, Sentrin-specific protease 6 (Homo sapiens, UniProt Q9GZR1); experiment: SAR Analysis of small molecule inhibitors of Sentrin-specific protease 6 (SENP6) using a Luminescent assay. [Related pubchem assays (depositor defined):AID2582, AID2599]; format: functional
T3 sequence (Q9GZR1 whole entry): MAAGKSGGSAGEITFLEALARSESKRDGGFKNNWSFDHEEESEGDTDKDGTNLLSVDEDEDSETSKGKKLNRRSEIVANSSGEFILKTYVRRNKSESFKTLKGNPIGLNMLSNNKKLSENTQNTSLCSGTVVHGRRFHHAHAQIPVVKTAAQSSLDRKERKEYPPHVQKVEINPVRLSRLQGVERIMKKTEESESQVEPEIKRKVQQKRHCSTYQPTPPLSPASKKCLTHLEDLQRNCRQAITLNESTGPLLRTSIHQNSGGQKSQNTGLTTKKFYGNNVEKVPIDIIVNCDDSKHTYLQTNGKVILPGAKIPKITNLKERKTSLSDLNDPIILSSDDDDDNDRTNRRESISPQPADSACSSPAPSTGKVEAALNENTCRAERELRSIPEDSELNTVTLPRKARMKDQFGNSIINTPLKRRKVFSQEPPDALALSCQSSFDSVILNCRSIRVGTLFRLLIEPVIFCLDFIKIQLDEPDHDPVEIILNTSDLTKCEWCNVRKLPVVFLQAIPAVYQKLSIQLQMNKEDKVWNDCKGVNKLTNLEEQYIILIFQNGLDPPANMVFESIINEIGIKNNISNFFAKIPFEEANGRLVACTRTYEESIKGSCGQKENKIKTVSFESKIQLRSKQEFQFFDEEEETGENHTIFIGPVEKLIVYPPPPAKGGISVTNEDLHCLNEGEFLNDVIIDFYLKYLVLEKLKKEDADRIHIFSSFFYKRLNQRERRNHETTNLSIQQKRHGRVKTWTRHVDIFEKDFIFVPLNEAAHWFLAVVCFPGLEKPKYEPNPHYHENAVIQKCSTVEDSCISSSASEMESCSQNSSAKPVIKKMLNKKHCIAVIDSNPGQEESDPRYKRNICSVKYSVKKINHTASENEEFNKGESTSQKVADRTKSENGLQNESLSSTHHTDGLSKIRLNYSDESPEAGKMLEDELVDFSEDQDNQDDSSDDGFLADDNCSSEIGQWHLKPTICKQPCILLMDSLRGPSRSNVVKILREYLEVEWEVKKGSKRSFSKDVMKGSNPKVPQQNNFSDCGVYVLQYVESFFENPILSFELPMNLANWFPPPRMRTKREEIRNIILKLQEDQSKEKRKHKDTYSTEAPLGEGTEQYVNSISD

[4] = molecular target: T4, Caspase-3 (Homo sapiens, UniProt P42574); experiment: SAR Analysis of small molecule inhibitors of Sentrin-specific proteases (SENPs) using a Caspase-3 Selectivity assay. [Related pubchem assays (depositor defined):AID2540, AID2599, AID434973, AID489001]; format: functional
T4 sequence (P42574 whole entry): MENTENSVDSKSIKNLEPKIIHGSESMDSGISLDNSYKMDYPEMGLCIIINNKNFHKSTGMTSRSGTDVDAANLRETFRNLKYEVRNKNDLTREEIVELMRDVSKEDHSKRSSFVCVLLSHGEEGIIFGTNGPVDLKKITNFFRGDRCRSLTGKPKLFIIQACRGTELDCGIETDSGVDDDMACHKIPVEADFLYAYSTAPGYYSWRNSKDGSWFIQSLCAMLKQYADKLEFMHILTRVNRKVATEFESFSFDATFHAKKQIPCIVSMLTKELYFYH

[5] = HEK-293T cell viability reduction – luminescence, B-cell screen hits, cytotoxicity control for BCR NF-kB inhibitor project, dose response (AID 489021); format: functional, cell-based;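 note: HEK-293T cells carrying an NF-kB luciferase reporter; cells exposed to compound for about 14 hours before viability readout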
[6] = molecular target: T5, High affinity choline transporter 1 (Homo sapiens, UniProt Q9GZV3); experiment: human choline transporter potentiators, potency – cell-based, 10-point CRC, membrane potential dye, dose response (AID 602376); format: functional
T5 sequence (Q9GZV3 whole entry): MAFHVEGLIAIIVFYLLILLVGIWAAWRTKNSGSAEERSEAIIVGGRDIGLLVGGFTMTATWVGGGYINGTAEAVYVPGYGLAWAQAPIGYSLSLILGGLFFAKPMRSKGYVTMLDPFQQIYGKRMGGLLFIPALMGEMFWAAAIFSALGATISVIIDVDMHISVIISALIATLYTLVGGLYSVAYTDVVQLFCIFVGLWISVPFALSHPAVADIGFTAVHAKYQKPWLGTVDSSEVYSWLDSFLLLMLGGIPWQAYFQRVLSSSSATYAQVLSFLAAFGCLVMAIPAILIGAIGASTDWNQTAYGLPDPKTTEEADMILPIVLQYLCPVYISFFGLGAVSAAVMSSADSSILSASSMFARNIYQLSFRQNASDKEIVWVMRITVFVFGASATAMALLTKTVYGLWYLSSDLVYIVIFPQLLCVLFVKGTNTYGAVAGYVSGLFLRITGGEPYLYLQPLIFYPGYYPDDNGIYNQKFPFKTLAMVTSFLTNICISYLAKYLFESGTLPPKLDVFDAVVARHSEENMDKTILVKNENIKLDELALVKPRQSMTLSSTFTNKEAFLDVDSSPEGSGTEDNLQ

[7] = molecular target: Luciferin 4-monooxygenase (Photinus pyralis, UniProt P08659); experiment: inhibition of purified Photinus pyralis luciferase – biochemical, luminescence, dose response (AID 1891)
[8] = Luminescence Cell-Based Dose Confirmation HTS to Identify Inhibitors of Platelet Dense Granule Release. [Related pubchem assays: 1663 (Primary HTS), 1678 (Summary of Project)]; format: functional
[9] = molecular target: Melanin-concentrating hormone receptor 1 (Homo sapiens, UniProt Q99705); experiment: Late-stage fluorescence-based counterscreen for antagonists of the G-protein coupled receptor 7 (GPR7): cell-based dose response assay to identify antagonists of the melanin-concentrating hormone receptor 1 (MCHR1) Set 5.; format: functional
[10] = molecular target: Serine/threonine-protein kinase Chk1 (Homo sapiens, UniProt O14757); format: functional;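 note: measured as one member of a kinome-wide kinase profiling panel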
[11] = molecular target: T6, Serine/threonine-protein kinase Nek2 (Homo sapiens, UniProt P51955); format: functional
T6 sequence (P51955 whole entry): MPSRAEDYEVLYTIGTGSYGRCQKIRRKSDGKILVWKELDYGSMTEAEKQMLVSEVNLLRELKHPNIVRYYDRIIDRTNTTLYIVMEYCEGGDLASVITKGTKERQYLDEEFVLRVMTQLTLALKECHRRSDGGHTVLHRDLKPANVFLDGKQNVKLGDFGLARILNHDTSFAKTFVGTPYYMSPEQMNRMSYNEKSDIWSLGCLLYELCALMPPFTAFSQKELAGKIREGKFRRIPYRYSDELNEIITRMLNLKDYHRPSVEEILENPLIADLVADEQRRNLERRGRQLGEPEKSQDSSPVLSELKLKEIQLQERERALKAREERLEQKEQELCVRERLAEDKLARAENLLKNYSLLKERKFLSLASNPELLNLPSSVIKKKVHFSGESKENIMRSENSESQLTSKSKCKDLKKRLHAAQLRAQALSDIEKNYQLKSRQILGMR

[12] = molecular target: LIM domain kinase 1 (Homo sapiens, UniProt P53667); experiment: Navigating the Kinome. Panel member name: LIMK1; format: functional
[13] = molecular target: Cyclin-dependent kinase 8 (Homo sapiens, UniProt P49336); experiment: Navigating the Kinome. Panel member name: CDK8; format: functional
Cyclin-dependent kinase 8, sequence (P49336 whole entry): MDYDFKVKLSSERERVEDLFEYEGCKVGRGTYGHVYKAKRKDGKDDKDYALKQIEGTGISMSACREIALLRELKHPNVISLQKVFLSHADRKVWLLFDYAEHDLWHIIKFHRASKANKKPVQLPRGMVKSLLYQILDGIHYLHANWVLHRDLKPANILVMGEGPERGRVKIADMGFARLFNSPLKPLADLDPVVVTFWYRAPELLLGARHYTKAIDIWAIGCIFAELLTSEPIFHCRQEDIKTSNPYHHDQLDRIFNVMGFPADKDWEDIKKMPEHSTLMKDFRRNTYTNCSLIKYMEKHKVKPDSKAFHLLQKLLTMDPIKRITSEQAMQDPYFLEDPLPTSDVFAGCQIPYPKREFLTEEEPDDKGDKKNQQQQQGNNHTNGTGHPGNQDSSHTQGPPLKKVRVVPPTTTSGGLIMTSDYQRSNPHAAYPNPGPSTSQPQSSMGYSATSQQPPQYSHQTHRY

Serine/threonine-protein kinase Chk1, sequence (O14757 whole entry): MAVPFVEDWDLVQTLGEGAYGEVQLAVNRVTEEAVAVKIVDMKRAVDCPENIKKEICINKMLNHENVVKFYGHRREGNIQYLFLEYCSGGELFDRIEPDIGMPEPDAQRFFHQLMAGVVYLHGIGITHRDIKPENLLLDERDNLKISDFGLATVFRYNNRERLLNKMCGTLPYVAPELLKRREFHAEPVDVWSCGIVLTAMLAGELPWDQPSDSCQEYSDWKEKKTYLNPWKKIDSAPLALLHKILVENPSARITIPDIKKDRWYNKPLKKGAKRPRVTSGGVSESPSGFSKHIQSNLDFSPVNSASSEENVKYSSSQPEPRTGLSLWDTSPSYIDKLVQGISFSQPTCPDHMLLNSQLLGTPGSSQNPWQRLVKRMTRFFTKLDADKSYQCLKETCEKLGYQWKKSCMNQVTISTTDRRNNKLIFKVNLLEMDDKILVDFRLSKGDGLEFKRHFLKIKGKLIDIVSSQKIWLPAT
Melanin-concentrating hormone receptor 1, sequence (Q99705 whole entry): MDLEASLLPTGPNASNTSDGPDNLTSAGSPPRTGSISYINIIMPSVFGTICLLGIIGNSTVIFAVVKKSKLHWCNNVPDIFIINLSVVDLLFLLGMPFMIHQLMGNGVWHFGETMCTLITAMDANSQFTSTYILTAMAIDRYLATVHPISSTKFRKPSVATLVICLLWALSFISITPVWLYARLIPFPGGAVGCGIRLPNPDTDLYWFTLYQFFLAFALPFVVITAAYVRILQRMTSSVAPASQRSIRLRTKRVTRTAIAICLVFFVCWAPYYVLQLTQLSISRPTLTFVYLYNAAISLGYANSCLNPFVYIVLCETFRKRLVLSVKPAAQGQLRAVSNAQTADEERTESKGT
Luciferin 4-monooxygenase, sequence (P08659 whole entry): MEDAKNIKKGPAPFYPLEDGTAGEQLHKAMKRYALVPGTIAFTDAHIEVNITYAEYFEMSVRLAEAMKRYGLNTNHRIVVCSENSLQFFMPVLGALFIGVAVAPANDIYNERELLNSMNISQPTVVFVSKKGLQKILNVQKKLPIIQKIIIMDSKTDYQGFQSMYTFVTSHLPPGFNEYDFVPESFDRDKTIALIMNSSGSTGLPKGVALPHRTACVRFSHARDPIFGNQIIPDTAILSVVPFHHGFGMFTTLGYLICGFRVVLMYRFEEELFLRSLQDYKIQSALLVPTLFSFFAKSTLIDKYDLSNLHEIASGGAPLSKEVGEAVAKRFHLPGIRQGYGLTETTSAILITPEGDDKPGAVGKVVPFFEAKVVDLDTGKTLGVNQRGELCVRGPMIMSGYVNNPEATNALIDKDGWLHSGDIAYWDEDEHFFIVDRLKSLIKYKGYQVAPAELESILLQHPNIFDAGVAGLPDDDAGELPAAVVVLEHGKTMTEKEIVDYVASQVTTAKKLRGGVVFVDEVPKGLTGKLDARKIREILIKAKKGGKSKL
LIM domain kinase 1, sequence (P53667 whole entry, the tested form may be a part): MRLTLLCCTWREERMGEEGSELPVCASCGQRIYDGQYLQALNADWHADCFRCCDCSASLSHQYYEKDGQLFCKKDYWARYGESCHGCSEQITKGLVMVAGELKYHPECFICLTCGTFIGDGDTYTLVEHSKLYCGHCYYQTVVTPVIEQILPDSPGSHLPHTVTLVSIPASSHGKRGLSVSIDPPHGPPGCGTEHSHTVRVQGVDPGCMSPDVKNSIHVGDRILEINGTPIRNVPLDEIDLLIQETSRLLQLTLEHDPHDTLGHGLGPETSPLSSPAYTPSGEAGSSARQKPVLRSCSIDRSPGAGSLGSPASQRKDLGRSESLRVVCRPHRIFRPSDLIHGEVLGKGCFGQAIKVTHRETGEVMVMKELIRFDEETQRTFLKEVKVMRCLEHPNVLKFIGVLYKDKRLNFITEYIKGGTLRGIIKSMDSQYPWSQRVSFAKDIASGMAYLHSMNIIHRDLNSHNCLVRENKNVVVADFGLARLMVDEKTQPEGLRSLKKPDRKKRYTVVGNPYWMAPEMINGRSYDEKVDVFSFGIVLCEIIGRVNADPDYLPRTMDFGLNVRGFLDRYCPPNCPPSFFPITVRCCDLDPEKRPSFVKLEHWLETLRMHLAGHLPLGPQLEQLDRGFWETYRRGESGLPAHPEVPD

| IC50 [2] | IC50 [3] | IC50 [4] | Structure (SMILES) | IC50 [1] | EC50 [6] | further results |
| --- | --- | --- | --- | --- | --- | --- |
| > 99 µM (inactive) | > 99 µM (inactive) | > 99 µM (inactive) | Cc1c(C(=O)Nc2nc3ccccc3s2)oc2ccccc12 | > 99 µM (inactive) | – | – |
| – | – | – | COc1cc(C2C(C#N)=C(N)Oc3cc(N)ccc32)cc(OC)c1OC (stereo not drawn) | – | 13.5 µM (active) | IC50 [5]: > 80 µM (inactive) |
| – | – | – | CC(Oc1ccccc1)C(=O)N(CCC1=CCCCC1)c1c(N)n(Cc2ccccc2)c(=O)[nH]c1=O (stereo not drawn) | – | 15 µM (active) | EC50 [7]: > 112 µM (not active); EC50 [8]: > 112 µM (not active) |
| > 99 µM (inactive) | > 99 µM (inactive) | > 99 µM (inactive) | CCN(CC)S(=O)(=O)c1ccc(C(=O)Nc2nc3c(C)ccc(Cl)c3s2)cc1 | > 99 µM (inactive) | – | – |
| – | – | – | CCOc1cccc(Oc2c(Cl)cnn(Cc3cccc4ccccc34)c2=O)c1 | – | – | IC50 [9]: 18.8 µM (inactive) |
| – | – | – | O=S(=O)(Nc1ccc2ccccc2c1O)c1ccc(F)cc1 | – | – | Ki [10]: 3.16 µM (active); Ki [11]: 3.16 µM (active); Ki [12]: 2.51 µM (active); Ki [13]: 2.51 µM (active) |
